31 compounds from ChEMBL document CHEMBL1697731, “Cheminformatics analysis of assertions mined from literature that describe drug-induced liver injury in different species” (Chem Res Toxicol, 2010) can be followed below.

In data set [1] the test system is Hepatotoxicity. Briefly: Literature-mined compound from Fourches et al multi-species drug-induced liver injury (DILI) dataset, effect in humans. Particulars: human.
Data set [2] relates to Hepatotoxicity. Put plainly: Literature-mined compound from Fourches et al multi-species drug-induced liver injury (DILI) dataset, effect in rodents. The settings on record: rodentia.
For data set [3], the system named is Hepatotoxicity. Briefly: Literature-mined compound from Fourches et al multi-species drug-induced liver injury (DILI) dataset, effect in non-rodents.

Molecules are shown by their SMILES.

For `Cc1ccc(C(=O)Nc2ccc(S(=O)(=O)O)c3cc(S(=O)(=O)O)cc(S(=O)(=O)O)c23)cc1NC(=O)c1cccc(NC(=O)Nc2cccc(C(=O)Nc3cc(C(=O)Nc4ccc(S(=O)(=O)O)c5cc(S(=O)(=O)O)cc(S(=O)(=O)O)c45)ccc3C)c2)c1` [SURAMIN], the Hepatotoxicity result in data set [1], in data set [2] and in data set [3] was “drug-induced liver injury reported” each time.
Regarding `CNC1=Nc2ccc(Cl)cc2C(c2ccccc2)=[N+]([O-])C1` [CHLORDIAZEPOXIDE], the Hepatotoxicity result in data set [1] is reported as “no drug-induced liver injury reported”; in data set [2], “drug-induced liver injury reported”; in data set [3], “no drug-induced liver injury reported”.
Take `CCOC(=O)n1ccn(C)c1=S` [CARBIMAZOLE]: the results for the Hepatotoxicity result in data set [1], in data set [2] and in data set [3] were “drug-induced liver injury reported”, “no drug-induced liver injury reported” and “no drug-induced liver injury reported”, respectively.
`O=C(CC1NCCCC1O)Cn1cnc2cc(Br)c(Cl)cc2c1=O` (stereo not drawn) [HALOFUGINONE]: the values for the Hepatotoxicity entry in data set [1], in data set [2] and in data set [3] were “drug-induced liver injury reported”, “drug-induced liver injury reported” and “no drug-induced liver injury reported”, respectively.
In the case of `CC(C)N(CCC(C(N)=O)(c1ccccc1)c1ccccn1)C(C)C` (stereo not drawn) [DISOPYRAMIDE], the Hepatotoxicity result in data set [1] is “drug-induced liver injury reported”; in data set [2] it was “no drug-induced liver injury reported”; in data set [3] it was “no drug-induced liver injury reported”.
Regarding `COc1cc2c(c(OC)c1OC)-c1ccc(OC)c(=O)cc1[C@@H](NC(C)=O)CC2` [COLCHICINE], the Hepatotoxicity result was “drug-induced liver injury reported” in data set [1], “drug-induced liver injury reported” in data set [2] and “no drug-induced liver injury reported” in data set [3].
For `CO[C@H]1/C=C/O[C@@]2(C)Oc3c(C)c(O)c4c(O)c(c(/C=N/N5CCN(C)CC5)c(O)c4c3C2=O)NC(=O)/C(C)=C\C=C\[C@H](C)[C@H](O)[C@@H](C)[C@@H](O)[C@@H](C)[C@H](OC(C)=O)[C@@H]1C` [RIFAMPIN], the Hepatotoxicity entry in data set [1], in data set [2] and in data set [3] was “drug-induced liver injury reported” throughout.
Consider `CC1=C(CCC(=O)O)c2cc3nc(cc4[nH]c(cc5[nH]c(cc1n2)c(C)c5C(C)O)c(C)c4C(C)O)C(C)=C3CCC(=O)O` (stereo not drawn) [HAEMAPORPHYRIN], for which the Hepatotoxicity entry is reported as “no drug-induced liver injury reported” in data set [1], “drug-induced liver injury reported” in data set [2] and “no drug-induced liver injury reported” in data set [3].
`CN(C)CCC(c1ccc(Cl)cc1)c1ccccn1` (stereo not drawn) [CHLORPHENIRAMINE]: the Hepatotoxicity entry is “drug-induced liver injury reported” in data set [1], “no drug-induced liver injury reported” in data set [2] and “no drug-induced liver injury reported” in data set [3].
With `CCC1(c2ccccc2)C(=O)NCNC1=O` [PRIMIDONE], the Hepatotoxicity entry in data set [1] is “drug-induced liver injury reported”; in data set [2] it was “no drug-induced liver injury reported”; in data set [3] it was “drug-induced liver injury reported”.
On to `CCN(CC)CCNC(=O)c1ccc(N)cc1` [PROCAINAMIDE], for which the Hepatotoxicity entry in data set [1] was “drug-induced liver injury reported”; in data set [2] it was “drug-induced liver injury reported”; in data set [3], “no drug-induced liver injury reported”.
As to `COc1ccc2c(c1)c(CC(=O)O)c(C)n2C(=O)c1ccc(Cl)cc1` [INDOMETHACIN], the Hepatotoxicity entry in data set [1], in data set [2] and in data set [3] was “drug-induced liver injury reported” throughout.
With `CC(C)n1c(/C=C/C(O)CC(O)CC(=O)O)c(-c2ccc(F)cc2)c2ccccc21` (stereo not drawn) [FLUVASTATIN], the Hepatotoxicity entry in data set [1] (Liver) was “drug-induced liver injury reported”; in data set [2] (Liver) it was “drug-induced liver injury reported”; in data set [3] (Liver), “no drug-induced liver injury reported”.
Regarding `CC1=C(CC(=O)NCc2ccccc2)c2cc(F)ccc2/C1=C\c1ccncc1.Cl` [CP-461], the Hepatotoxicity entry in data set [1] was “drug-induced liver injury reported”; in data set [2], “no drug-induced liver injury reported”; in data set [3], “no drug-induced liver injury reported”.
Regarding `O=C(O)Cc1ccccc1` [PHENYLACETIC ACID], the figures for the Hepatotoxicity entry in data set [1], in data set [2] and in data set [3] were “no drug-induced liver injury reported”, “drug-induced liver injury reported” and “no drug-induced liver injury reported”, respectively.
As for `Clc1c(Cl)c(Cl)c(Cl)c(Cl)c1Cl` [PERCHLOROBENZENE], the Hepatotoxicity result in data set [1] was “drug-induced liver injury reported”; in data set [2], “drug-induced liver injury reported”; in data set [3], “no drug-induced liver injury reported”.
As for `Cc1cccc(C)c1NC(=O)c1cc(S(N)(=O)=O)c(Cl)cc1O` [XIPAMIDE], the Hepatotoxicity result in data set [1] was “no drug-induced liver injury reported”; in data set [2] it was “drug-induced liver injury reported”; in data set [3] it was “no drug-induced liver injury reported”.
Turning to `CN1CCC[C@H]1c1cccnc1` [NICOTINE], the Hepatotoxicity result in data set [1] (Liver) is “drug-induced liver injury reported”; in data set [2] (Liver) it was “drug-induced liver injury reported”; in data set [3] (Liver), “no drug-induced liver injury reported”.
With `C[C@H]1COc2c(N3CCN(C)CC3)c(F)cc3c(=O)c(C(=O)O)cn1c23.C[C@H]1COc2c(N3CCN(C)CC3)c(F)cc3c(=O)c(C(=O)O)cn1c23.O` [LEVOFLOXACIN], the results for the Hepatotoxicity entry in data set [1], in data set [2] and in data set [3] were “drug-induced liver injury reported”, “no drug-induced liver injury reported” and “no drug-induced liver injury reported”, respectively.
`CC[C@H]1OC(=O)[C@H](C)[C@@H](O[C@H]2C[C@@](C)(OC)[C@@H](O)[C@H](C)O2)[C@H](C)[C@@H](O[C@@H]2O[C@H](C)C[C@H](N(C)C)[C@H]2O)[C@](C)(O)C[C@@H](C)/C(=N\OCOCCOC)[C@H](C)[C@@H](O)[C@]1(C)O` [ROXITHROMYCIN]: the Hepatotoxicity result is “drug-induced liver injury reported” in data set [1], “drug-induced liver injury reported” in data set [2] and “no drug-induced liver injury reported” in data set [3].
Regarding `O=C(O)CCCCCCNC1c2ccccc2CCc2ccccc21` [AMINEPTINE], the results for the Hepatotoxicity entry in data set [1], in data set [2] and in data set [3] were “drug-induced liver injury reported”, “drug-induced liver injury reported” and “no drug-induced liver injury reported”, respectively.
For the compound `CCCSc1ccc2nc(NC(=O)OC)[nH]c2c1` [ALBENDAZOLE], the values for the Hepatotoxicity entry in data set [1], in data set [2] and in data set [3] were “drug-induced liver injury reported”, “no drug-induced liver injury reported” and “no drug-induced liver injury reported”, respectively.
As for `Nc1ncnc2c1ncn2[C@@H]1O[C@H](CO)C[C@H]1O` [CORDYCEPIN], the Hepatotoxicity entry in data set [1] is “no drug-induced liver injury reported”; in data set [2], “drug-induced liver injury reported”; in data set [3], “no drug-induced liver injury reported”.
Consider `CC(C)NNC(=O)COc1ccc(Cl)cc1` [IPROCLOZIDE], for which the values for the Hepatotoxicity entry in data set [1], in data set [2] and in data set [3] were “drug-induced liver injury reported”, “no drug-induced liver injury reported” and “no drug-induced liver injury reported”, respectively.
Consider `C#C[C@]1(OC(C)=O)CC[C@H]2[C@@H]3CCC4=CC(=O)CC[C@@H]4[C@H]3CC[C@@]21C` [NORETHINDRONE ACETATE], for which the Hepatotoxicity result in data set [1] is listed as “no drug-induced liver injury reported”; in data set [2], “drug-induced liver injury reported”; in data set [3] it was “drug-induced liver injury reported”.
Consider `COc1cc2c(cc1OC)C1CC(=O)C(CC(C)C)CN1CC2` (stereo not drawn) [TETRABENAZINE], for which the values for the Hepatotoxicity entry in data set [1], in data set [2] and in data set [3] were “drug-induced liver injury reported”, “no drug-induced liver injury reported” and “no drug-induced liver injury reported”, respectively.
Consider `CSCC[C@H](NC(=O)[C@H](Cc1c[nH]c2ccccc12)NC(=O)CCNC(=O)OC(C)(C)C)C(=O)N[C@@H](CC(=O)O)C(=O)N[C@@H](Cc1ccccc1)C(N)=O` [PENTAGASTRIN], for which the Hepatotoxicity entry in data set [1] is given as “drug-induced liver injury reported”; in data set [2], “drug-induced liver injury reported”; in data set [3], “no drug-induced liver injury reported”.
Turning to `O=C(CCCCC(=O)Nc1c(I)cc(I)c(C(=O)O)c1I)Nc1c(I)cc(I)c(C(=O)O)c1I` [IODIPAMIDE], the Hepatotoxicity entry was “no drug-induced liver injury reported” in data set [1], “drug-induced liver injury reported” in data set [2] and “drug-induced liver injury reported” in data set [3].
Regarding `C[C@@H](CN1CC(=O)NC(=O)C1)N1CC(=O)NC(=O)C1` [DEXRAZOXANE], the Hepatotoxicity entry is “no drug-induced liver injury reported” in data set [1], “drug-induced liver injury reported” in data set [2] and “no drug-induced liver injury reported” in data set [3].
As to `COC(=O)C1=C(C)NC(C)=C(C(=O)OCC(C)C)C1c1ccccc1[N+](=O)[O-]` (stereo not drawn) [NISOLDIPINE], the Hepatotoxicity result in data set [1], in data set [2] and in data set [3] was “drug-induced liver injury reported” throughout.
Take `CCOC(=O)C1=C(C)NC(C)=C(C(=O)OC)C1c1cccc(Cl)c1Cl` (stereo not drawn) [FELODIPINE]: the Hepatotoxicity result is on record as “drug-induced liver injury reported” in data set [1], “no drug-induced liver injury reported” in data set [2] and “no drug-induced liver injury reported” in data set [3].
